Assay results: patent US20060216699A1, “Peptides for the detection of HIV-1 group O” (priority 1998, published 2006)

What was measured:
[1] = test system: anti-HIV-1 group O antibodies present in human serum; test: ELISA: biotinylated peptide bound to streptavidin-coated wells, HIV-1 group O sera, anti-IgG:HRP, OPD, absorbance at 492 nm; assay type: binding
Method: Serological recognition of the peptide by HIV-1 group O sera. Peptide 147 was evaluated for its ability to be recognized by anti-HIV-1 group O antibodies present in human serum from infected individuals. All group O samples were confirmed to be positive for HIV-1 group O by reverse transcriptase-polymerase chain reaction (RT-PCR) amplification of viral gp41 sequences using O-specific primers. The identity of the PCR product was further confirmed by DNA sequencing.
This technique involves binding of the antigen to a solid phase, bringing the fluid to be tested into contact with the antigen-coated solid phase, washing away any unbound material, and then detecting bound antibodies with an enzyme-labeled second antibody. The presence of the enzyme is detected using a chromogenic or luminogenic substrate.
To evaluate biotinylated peptide 147, wells of a microtiter plate were coated with streptavidin at a concentration of 1 μg/ml in 50 mM carbonate buffer, pH 9.6 (200 μl/well). Excess unbound streptavidin was removed by washing several times with phosphate buffered saline (PBS). Biotinylated peptide 147 was dissolved in a minimal volume of pure DMSO and then diluted into PBS to a concentration of 0.5 μg/ml. Two hundred microliters of the peptide solution were added to each well and the peptide allowed to bind to the streptavidin. After removing unbound peptide by washing with PBS, serum samples obtained from HIV-1 group O-infected patients were added to the wells of the plate. After a suitable incubation period, unbound material was removed by washing with PBS. A dilution of an anti-IgG:horse radish peroxidase (HRP) conjugate was added to each well and incubated for 30 minutes at 37° C. Unbound material was removed by extensive washing. Substrate solution containing O-phenylenediamine (OPD) and H2O2 was added to each well and the plate was further incubated, protected from light. After a 30 minute incubation period at room temperature, the reaction was terminated by the addition of 50 μl of 4N H2SO4 and the absorbance of each well was read at 492 nm.
Peptide 147 was first tested by using undiluted (10 μl) serum samples. The sample measurements are in optical density (OD).
A panel of serially diluted group O sera was tested with peptide 147 in order to evaluate the sensitivity of an ELISA using this antigen. Streptavidin-coated plates were prepared and loaded with peptide 147 as before, and tested using the dilutional panels. In addition, in order to compare the performance of […] peptide 147 with that of a genuine group O sequence, a second peptide was synthesized (peptide 146) corresponding to the sequence of the DUR variant.
These peptides cover precisely the same region of gp41, and were tested in parallel.

type B sample = test: ELISA: biotinylated peptide bound to streptavidin-coated wells, type B sample; assay type: binding, human; conditions: undiluted
[2] = test system: antibodies to HIV-1 group O; test: Chemiluminescent ELISA: serially diluted peptide on streptavidin-coated wells, serum ODS007b 1:60, anti-human IgG:HRP, luminol; assay type: binding; conditions: for luminescent units: serum ODS007b 1:60
Method: To compare the performance of peptide 147 to another genuine group O sequence, the peptide corresponding to the ANT70 sequence was synthesized (peptide 80). Peptides 147 and 80 were dissolved at the same concentration, serially diluted, and bound to streptavidin-coated wells. A 1:60 dilution of serum sample ODS007b (see Table 3) was added to all wells and incubated. After washing, an anti-human IgG:HRP conjugate was added, incubated, and the wells again thoroughly washed. In this case, a chemiluminescent substrate was used, consisting of luminol and a peracid salt. The emitted light was quantified using a luminometer. The results are tabulated in Table 4 and shown graphically in FIG. 2.

NQQRLNSWGCKGRIICYTSARWH (HIV Consensus) [peptide 147]
performance compared with a genuine group O sequence (peptide 146) ([1]; a number of the dilutional panels, in words): equaled or significantly exceeded that of a genuine group O sequence | binding of antibodies against the group O gp41 immunodominant region ([1]; highly diluted samples, in words): suitable antigen capable of binding antibodies against the group O gp41 immunodominant region | OD492 ([1]; negative control (uninfected blood donor), undiluted sample (10 μl)): 0.056 OD | OD492 ([1]; panel OP1, sample OP1A, dilution of original sample 2): 2.500 OD | OD492 ([1]; panel OP1, sample OP1B, dilution of original sample 4): 2.298 OD | OD492 ([1]; panel OP1, sample OP1C, dilution of original sample 8): 2.465 OD | OD492 ([1]; panel OP1, sample OP1D, dilution of original sample 16): 2.387 OD | OD492 ([1]; panel OP1, sample OP1E, dilution of original sample 32): 2.013 OD | OD492 ([1]; panel OP1, sample OP1F, dilution of original sample 64): 1.448 OD | OD492 ([1]; panel OP1, sample OP1G, dilution of original sample 128): 1.150 OD | OD492 ([1]; panel OP1, sample OP1H, dilution of original sample 256): 0.927 OD | OD492 ([1]; panel OP1, sample OP1I, dilution of original sample 512): 0.504 OD | OD492 ([1]; panel OP1, sample OP1J, dilution of original sample 1024): 0.053 OD | OD492 ([1]; panel OP2, sample OP2A, dilution of original sample 5): 2.236 OD | OD492 ([1]; panel OP2, sample OP2B, dilution of original sample 10): 2.320 OD | OD492 ([1]; panel OP2, sample OP2C, dilution of original sample 20): 2.157 OD | OD492 ([1]; panel OP2, sample OP2D, dilution of original sample 40): 1.844 OD | OD492 ([1]; panel OP2, sample OP2E, dilution of original sample 80): 1.061 OD | OD492 ([1]; panel OP2, sample OP2F, dilution of original sample 160): 0.689 OD | OD492 ([1]; panel OP2, sample OP2G, dilution of original sample 320): 0.327 OD | OD492 ([1]; panel OP2, sample OP2H, dilution of original sample 640): 0.184 OD | OD492 ([1]; panel OP2, sample OP2I, dilution of original sample 1280): 0.179 OD | OD492 ([1]; panel OP2, sample OP2J, dilution of original sample 2560): 0.090 OD | OD492 ([1]; panel OP3, sample OP3A, dilution of original sample 300): 0.229 OD | OD492 ([1]; panel OP3, sample OP3B, dilution of original sample 600): 0.373 OD | OD492 ([1]; panel OP3, sample OP3C, dilution of original sample 1200): 0.211 OD | OD492 ([1]; panel OP4, sample OP4A, dilution of original sample 100): 0.774 OD | OD492 ([1]; panel OP4, sample OP4B, dilution of original sample 200): 0.608 OD | OD492 ([1]; panel OP4, sample OP4C, dilution of original sample 400): 0.398 OD | OD492 ([1]; panel OP4, sample OP4D, dilution of original sample 800): 0.277 OD | OD492 ([1]; panel OP4, sample OP4E, dilution of original sample 1600): 0.040 OD | OD492 ([1]; panel OP5, sample OP5A, dilution of original sample 100): 1.624 OD | OD492 ([1]; panel OP5, sample OP5B, dilution of original sample 200): 1.027 OD | OD492 ([1]; panel OP5, sample OP5C, dilution of original sample 400): 0.225 OD | OD492 ([1]; panel OP5, sample OP5D, dilution of original sample 800): 0.302 OD | OD492 ([1]; panel OP6, sample OP6A, dilution of original sample 50): 0.667 OD | OD492 ([1]; panel OP7-2, sample OP7-2A, dilution of original sample 100): 2.081 OD | OD492 ([1]; panel OP7-2, sample OP7-2B, dilution of original sample 200): 1.817 OD | OD492 ([1]; panel OP7-2, sample OP7-2C, dilution of original sample 400): 1.346 OD | OD492 ([1]; panel OP7-2, sample OP7-2D, dilution of original sample 800): 0.847 OD | OD492 ([1]; sample ODS001, undiluted): 2.500 OD | OD492 ([1]; sample ODS002, undiluted): 2.500 OD | OD492 ([1]; sample ODS003, undiluted): 2.500 OD | OD492 ([1]; sample ODS004, undiluted): 2.500 OD | OD492 ([1]; sample ODS006, undiluted): 2.500 OD | OD492 ([1]; sample ODS007a, undiluted): 2.500 OD | OD492 ([1]; sample ODS007b, undiluted): 2.500 OD | OD492 ([1]; sample ODS009, undiluted): 2.500 OD | recognition by antibodies produced in response to an HIV-1 group O infection ([1]; undiluted specimens, in words): capable of recognizing peptide 147 | OD492 (type B sample): 1.926 OD | detection of antibodies to HIV-1 group O compared with a naturally occurring isolate (peptide 80) ([2]; in words): comparable to that of a naturally occurring isolate | luminescent units ([2]; peptide 0.020 ug/ml): 0.619 luminescent units | luminescent units ([2]; peptide 0.039 ug/ml): 0.504 luminescent units | luminescent units ([2]; peptide 0.078 ug/ml): 0.740 luminescent units | luminescent units ([2]; peptide 0.156 ug/ml): 1.199 luminescent units | luminescent units ([2]; peptide 0.313 ug/ml): 2.090 luminescent units | luminescent units ([2]; peptide 0.625 ug/ml): 3.093 luminescent units | luminescent units ([2]; peptide 1.250 ug/ml): 2.885 luminescent units | luminescent units ([2]; peptide 2.500 ug/ml): 2.374 luminescent units
